Assay results reported in patent US5235061A, “Fungicidal (1H-1,2,4-triazolyl)disilaalkanes” (priority 1991, dated 1993).

Key:
Test in all cases: In vitro percent disease control (radii of spore growth on agar)
Format in all cases: cell-based
Alternaria mali = conditions: Alternaria mali, read-out: % controlled, Al.
Protocol: (§1) The compounds of this invention were dissolved respectively in acetone in an amount equal to 10% of the final volume and then in purified water at the concentration of 100 ppm and 50 ppm.
(§2) Each of the solution was mixed with potato-sucrose-agar medium in a 6" petri dish and one of the fungi was spotted at the center of the dish. The dish was incubated in growth room for several days. The percent disease control was derived from the radii of spore growth. The screening tests in vitro condition are well-known to those skilled in the art.
(§3) The following fungi were used for the screening.

Rhizopus sp. = conditions: Rhizopus, read-out: % controlled, Rhi. sp.
Protocol: as §1, §2, §3

Phytophthora capsisi = conditions: Phytophthora, read-out: % controlled, Phy ca.
Protocol: as §1, §2, §3
2) Phy. ca.; Phytophthora capsisi

Physalospora baccae = conditions: read-out: % controlled, Phy ba.
Protocol: as §1, §2, §3
3) Phy. ba.; Physalospora baccae

[1] = test system: Botryosphaeria dothidea Macrophoma sp.; conditions: Botryosphaeria dothidea, read-out: % controlled, Bo.do (Ma.)
Protocol: as §1, §2, §3
4) Bo.do(Ma); Botryosphaeria dothidea Macrophoma sp.

Glomerella cingulata = conditions: Colletotrichum gloeosporioides, read-out: % controlled, Glo.
Protocol: as §1, §2, §3
5) Glo.; Glomerella cingulata

Pyricalaria oryzae = conditions: for inhibition of growth at 50 ppm: read-out: % controlled, Py. or., 50 ppm; for inhibition of growth at 100 ppm: read-out: % controlled, Py. or., 100 ppm
Protocol: as §1, §2, §3
6) Py.or.; Pyricalaria oryzae

Rhizoctonia solani = conditions: Rhizoctonia solani, read-out: % controlled, Rhy. so.
Protocol: as §1, §2, §3
7) Rhi.so.; Rhizoctonia solani

Fusarium moniliforme = test system: Fusarium moniliforme
Protocol: as §1, §2, §3
8) Fu.mo.; Fusarium moniliforme

Botry tris cinerea = conditions: read-out: % controlled, Bo ci.
Protocol: as §1, §2, §3
10) Bo.ci.; Botry tris cinerea

Structure (SMILES) | inhibition of growth at 50 ppm (Alternaria mali) | inhibition of growth at 100 ppm (Alternaria mali) | inhibition of growth at 50 ppm (Rhizopus sp.) | inhibition of growth at 100 ppm (Rhizopus sp.) | inhibition of growth at 50 ppm (Phytophthora capsisi) | inhibition of growth at 100 ppm (Phytophthora capsisi) | inhibition of growth at 50 ppm (Physalospora baccae) | inhibition of growth at 100 ppm (Physalospora baccae) | inhibition of growth at 50 ppm [1] | inhibition of growth at 100 ppm [1] | inhibition of growth at 50 ppm (Glomerella cingulata) | inhibition of growth at 100 ppm (Glomerella cingulata) | inhibition of growth at 50 ppm (Pyricalaria oryzae) | inhibition of growth at 100 ppm (Pyricalaria oryzae) | inhibition of growth at 50 ppm (Rhizoctonia solani) | inhibition of growth at 100 ppm (Rhizoctonia solani) | % controlled, Fu. mo. (Fusarium moniliforme; 50 ppm) | % controlled, Fu. mo. (Fusarium moniliforme; 100 ppm) | inhibition of growth at 50 ppm (Botry tris cinerea) | inhibition of growth at 100 ppm (Botry tris cinerea)
C[Si](C)(C[Si](C)(Cn1cncn1)c1ccc(F)cc1)c1ccc(Cl)cc1 (stereo not drawn) [4-(4-chlorophenyl)-2-(4-fluorophenyl)-2,4-dimethyl-2,4-disila-1-(1H-1,2,4-triazol-1-yl)pentane] | 84% | 84% | 59% | 65% | 43% | 54% | 78% | 82% | 74% | 86% | 0% | 0% | 100% | 100% | 93% | 100% | 67% | 69% | 100% | 100%
C=CC[Si](C)(Cn1cncn1)C[Si](CC=C)(CC=C)CC=C (stereo not drawn) [4-methyl-6-bis(2-propenyl)-4,6-disila-4-(1H-1,2,4-triazol-1-ylmethyl)-1,8-nonadiene] | 75% | 95% | 60% | 80% | 45% | 50% | 80% | 85% | 70% | 75% | 82% | 87% | 100% | 100% | 96% | 96% | 46% | 65% | 60% | 80%
C[Si](C)(C)C[Si](Cn1cncn1)(c1ccc(Cl)cc1)c1ccc(Cl)cc1 [2,2-bis(4-chlorophenyl)-4,4-dimethyl-2,4-disila-1-(1H-1,2,4-triazol-1-yl)pentane] | 75% | 79% | 51% | 54% | 28% | 34% | 90% | 100% | 70% | 72% | 83% | 89% | 90% | 95% | 56% | 66% | 46% | 65% | 67% | 85%
C[Si](C)(C)C[Si](C)(Cn1cncn1)c1ccc(F)cc1 (stereo not drawn) [2-(4-fluorophenyl)-2,4,4-trimethyl-2,4-disila-1-(1H-1,2,4-triazol-1-yl)pentane] | 78% | 81% | 49% | 56% | 20% | 31% | 56% | 72% | 69% | 74% |  |  | 100% | 100% | 90% | 90% | 62% | 66% | 81% | 83%
